Test results reported in publication PMC5424110, “Preclinical anti-arthritic study and pharmacokinetic properties of a potent histone deacetylase inhibitor MPT0G009” (Cell Death & Disease, 2014).
Entries after “also recorded” stand apart in the source; their conditions may differ.

Assays:
[1] = target: T1, recombinant HDAC1 (Homo sapiens, UniProt Q13547); assay: Fluorogenic assay kit, recombinant HDAC1 enzyme activity; type: biochemical; conditions: mean±S.E.M., three replicate experiments; read-out: IC50 (nM) of HDAC isoforms enzyme, HDAC1
T1 construct: purchased BPS Bioscience Corp. (San Diego, CA, USA)
Source text: (§1) Using kits that contained different recombinant HDAC isoforms, we evaluated the ability of MPT0G009 to inhibit HDAC-mediated deacetylation of lysine residues on the substrates that were provided. […] Fluorogenic HDAC assay kits were used to assess the ability of HDAC inhibitors to inhibit deacetylation of lysine residues on the substrate by recombinant HDAC1, 2, 3, 4, 6 or 8 according to the manufacturer's instructions.

[2] = target: T2, recombinant HDAC2 (Homo sapiens, UniProt Q92769); assay: Fluorogenic assay kit, recombinant HDAC2 enzyme activity; type: biochemical; conditions: mean±S.E.M., three replicate experiments; read-out: IC50 (nM) of HDAC isoforms enzyme, HDAC2
T2 construct: purchased BPS Bioscience Corp. (San Diego, CA, USA)
Source text: as §1

[3] = target: T3, recombinant HDAC3 (Homo sapiens, UniProt O15379); assay: Fluorogenic assay kit, recombinant HDAC3 enzyme activity; type: biochemical; conditions: mean±S.E.M., three replicate experiments; read-out: IC50 (nM) of HDAC isoforms enzyme, HDAC3
T3 construct: purchased BPS Bioscience Corp. (San Diego, CA, USA)
Source text: as §1

[4] = target: T4, recombinant HDAC4 (Homo sapiens, UniProt P56524); assay: Fluorogenic assay kit, recombinant HDAC4 enzyme activity; type: biochemical; conditions: three replicate experiments; read-out: IC50 (nM) of HDAC isoforms enzyme, HDAC4
T4 construct: purchased BPS Bioscience Corp. (San Diego, CA, USA)
Source text: as §1

[5] = test system: HDACs in human RA fibroblast-like synoviocytes; assay: HDAC activity assay of cell lysates (RA-FLS); type: cell-based
Source text: We have synthesized 1-arylsulfonyl-5-(N-hydroxyacrylamide) indolines derivative HDAC inhibitors. […] In this study, we evaluated the anti-arthritic effects of MPT0G009 in vitro and in an in vivo model and determined the pharmacokinetics and its maximum tolerated dose (MTD).
Colorimetric HDAC activity kits were used to assay HDAC activity in cell lysates according to the manufacturer's instructions.

[6] = test system: RA-FLS; assay: Cell proliferation assay (SRB), RA-FLS; type: cell-based, human; conditions: 24 or 48 h
[7] = test system: histone H3 acetylation and HDAC3 in RA-FLS; assay: Western blot of acetyl histone H3 and HDAC isoforms, RA-FLS; type: cell-based, human
Protocol: Then, cells were harvested and cell lysates were prepared for western blot analysis of the indicated proteins. (c) RA-FLSs were incubated for 1 h with or without the proteasome inhibitor, MG132 (1 μM). […] Results shown are representative of three independent experiments.

[8] = test system: CD-1 mice; assay: Determination of the MTD in CD-1 mice; type: in vivo; conditions: for Lethality (%): qd × 7; for Change of body weight (%) Day 7 / Change of body weight (%) Day 14 / Change of body weight (%) Day 21: qd × 7, mean±S.E.M.
Protocol: The MTD was determined using CD-1 mice at 8–10 weeks of age by dose ranging from 250 to 1000 mg/kg orally once a day for 1 week and then monitored for another 2 weeks. Each dose was tested on six mice in individual independent experiments. MTD was defined as the highest dose that could be given resulting in no drug-related moribund state or death, while temporary body weight loss was within 20%.

[9] = test system: rat AIA model; assay: In vivo adjuvant-induced arthritis (AIA) model
Protocol: Next, we evaluated the in vivo anti-arthritic effects of MPT0G009 in a rat AIA model. […] The inhibition of synoviocytes proliferation and inflammation by MPT0G009 treatment was also observed (Supplementary Figure 1).
Figure 5 MPT0G009 inhibits the development of arthritis in an AIA model. […] Subsequently, swelling of both hind paws was photographed. (b) Hind paw volumes in the indicated group of rats were measured using a digital plethysmometer on the indicated day after AIA induction. (c) Arthritis scores on day 21. (d) Serum levels of interleukin (IL)-1β (left panel) and IL-6 (right panel) on day 21 as measured by enzyme-linked immunosorbent assay (ELISA). (e) Top five rows: photomicrographs of ankle joint sections from the different groups stained with hematoxylin and eosin, safranin O, immunohistochemically stained with an anti-acetyl H3 antibody or TRAP stain. Arrows indicate osteoblasts (OB); arrowheads indicate osteoclasts (OC). Bottom panels: micro-CT results (arrows indicate bone erosion). (f) The BMD (in mg/mm^3) and the BMC (in mg) values for the bone tissue of the tarsus were analyzed using CT Analysis Software.
Five-week-old male Lewis rats were obtained from the National Laboratory Animal Center (Taipei, Taiwan). Complete Freund's adjuvant (CFA) was prepared by suspending heat-killed Mycobacterium butyricum (Difco, Sparks, MD, USA) in mineral oil at 3 mg/ml. CFA-induced arthritis was induced by intradermal injection of 100 μl of the CFA emulsion into the base of the right hind paw on day 0. […] On days 0, 2, 6, 9, 13, 17 and 21, the animals were weighed and both hind paw volumes measured using a digital plethysmometer (Diagnostic & Research Instruments Co. Ltd, Taipei, Taiwan). On day 21, micro-CT of the paws was performed by the Core Facilities Center of the National Research Program for Biopharmaceuticals using an in vivo micro-CT scanner (Skyscan 1176, Bruker Corp., Kontich, Belgium) at 18 μm resolution and 180° scanning with a rotation step of 0.8° per image, 300 ms integration time, 70 keV photon energy and 350 μA current. The reconstructed volumes from micro-CT scans were analyzed by CT Analysis Software (CTAn, Bruker Corp.). Quantification of volumetric BMD and bone volume (BV) was performed in a defined bone area ranging 12 mm from tarsals to the end of the calcaneus. The BMC was described by the product of BV and BMD. On day 21, the rats were killed and specimens from the phalanges and ankle joints stained with hematoxylin–eosin or safranin O for histopathological assessment by the National Laboratory Animal Center. Intensity of arthritis was scored as described previously from 0 to 4.[19] All four legs were scored, so the highest possible arthritic score was 16.

[10] = test system: p21 in RA-FLS; assay: p21 expression in RA-FLS by flow cytometry
Protocol: After three washes with FACS washing buffer, the fluorescence of the cells was analyzed on a FACScan flow cytometer (BD Biosciences). […] They were then incubated for 30 min at room temperature with 0.2 ml of DNA extraction buffer (0.2 M Na2HPO4 and 0.1 M citric acid buffer, pH 7.8), resuspended in 1 ml of propidium iodide staining buffer (0.1% Triton X-100, 100 μg/ml of RNase A and 80 μg/ml of propidium iodide in PBS), incubated at 37 °C for 30 min in the dark, sorted by FACScan, and analyzed using CellQuest software (BD Biosciences).

[11] = day 21, ELISA, MPT0G009 25 mg/kg, SAHA 200 mg/kg, indomethacin 1 mg/kg
[12] = oral daily days 2 to 21, MPT0G009 25 mg/kg, SAHA 200 mg/kg, indomethacin 1 mg/kg, vs vehicle

T1 sequence (Q13547 whole entry, canonical isoform): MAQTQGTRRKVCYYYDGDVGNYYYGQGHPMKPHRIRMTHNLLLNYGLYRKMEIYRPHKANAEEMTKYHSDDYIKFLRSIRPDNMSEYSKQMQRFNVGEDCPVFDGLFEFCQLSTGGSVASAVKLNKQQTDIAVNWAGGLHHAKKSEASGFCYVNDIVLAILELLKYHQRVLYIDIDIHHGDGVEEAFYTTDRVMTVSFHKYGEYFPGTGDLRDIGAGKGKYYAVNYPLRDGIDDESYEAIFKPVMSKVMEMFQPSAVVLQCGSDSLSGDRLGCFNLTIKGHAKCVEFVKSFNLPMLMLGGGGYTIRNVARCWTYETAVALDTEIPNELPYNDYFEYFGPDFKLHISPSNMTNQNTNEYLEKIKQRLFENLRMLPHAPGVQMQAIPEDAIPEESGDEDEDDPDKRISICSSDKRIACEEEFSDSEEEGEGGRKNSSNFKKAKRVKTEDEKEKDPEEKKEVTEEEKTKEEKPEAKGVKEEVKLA
T4 sequence (P56524 627-1084 limits assumed): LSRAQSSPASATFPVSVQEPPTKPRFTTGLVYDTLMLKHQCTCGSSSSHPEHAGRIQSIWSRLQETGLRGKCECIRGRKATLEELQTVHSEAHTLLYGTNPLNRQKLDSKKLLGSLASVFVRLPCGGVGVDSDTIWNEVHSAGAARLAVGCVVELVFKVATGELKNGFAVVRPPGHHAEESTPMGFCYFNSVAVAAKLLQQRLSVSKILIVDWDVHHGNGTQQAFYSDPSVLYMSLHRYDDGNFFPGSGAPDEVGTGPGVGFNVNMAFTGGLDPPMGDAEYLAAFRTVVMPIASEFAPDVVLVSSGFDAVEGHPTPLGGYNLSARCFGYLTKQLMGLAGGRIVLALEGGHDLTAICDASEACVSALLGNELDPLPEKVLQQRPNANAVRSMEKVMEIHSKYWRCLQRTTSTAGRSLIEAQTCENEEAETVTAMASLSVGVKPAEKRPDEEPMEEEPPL
T3 sequence (O15379 whole entry, canonical isoform): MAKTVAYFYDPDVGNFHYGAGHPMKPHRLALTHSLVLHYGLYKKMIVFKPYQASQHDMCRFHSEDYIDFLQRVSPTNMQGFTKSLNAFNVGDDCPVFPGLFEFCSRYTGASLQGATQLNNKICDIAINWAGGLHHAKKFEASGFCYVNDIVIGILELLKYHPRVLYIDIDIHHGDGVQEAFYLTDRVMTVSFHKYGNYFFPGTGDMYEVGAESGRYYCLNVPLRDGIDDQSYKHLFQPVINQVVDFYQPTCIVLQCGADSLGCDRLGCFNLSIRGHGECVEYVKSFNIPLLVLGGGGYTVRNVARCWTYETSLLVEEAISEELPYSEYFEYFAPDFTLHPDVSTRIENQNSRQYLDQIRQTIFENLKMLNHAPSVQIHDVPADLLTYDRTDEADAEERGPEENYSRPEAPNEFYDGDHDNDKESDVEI
T3 sequence (Q9Y618 395-489 partner limits assumed): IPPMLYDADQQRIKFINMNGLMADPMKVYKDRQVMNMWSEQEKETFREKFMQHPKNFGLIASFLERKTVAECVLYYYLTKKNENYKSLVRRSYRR
T2 sequence (Q92769 whole entry, canonical isoform): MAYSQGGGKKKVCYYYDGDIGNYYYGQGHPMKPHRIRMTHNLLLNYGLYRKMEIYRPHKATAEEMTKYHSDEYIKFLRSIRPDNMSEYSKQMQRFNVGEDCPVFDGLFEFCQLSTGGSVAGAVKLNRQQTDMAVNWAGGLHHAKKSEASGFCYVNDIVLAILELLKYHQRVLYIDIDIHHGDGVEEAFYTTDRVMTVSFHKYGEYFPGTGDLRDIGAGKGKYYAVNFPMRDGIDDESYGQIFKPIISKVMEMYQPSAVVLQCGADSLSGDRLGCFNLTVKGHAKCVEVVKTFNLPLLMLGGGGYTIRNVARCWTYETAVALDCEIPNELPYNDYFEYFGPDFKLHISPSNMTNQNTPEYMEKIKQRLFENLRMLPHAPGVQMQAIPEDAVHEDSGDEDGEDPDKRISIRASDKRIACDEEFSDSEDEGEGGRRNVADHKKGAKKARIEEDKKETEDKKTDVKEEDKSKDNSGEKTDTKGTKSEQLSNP

Compound `COc1ccc(S(=O)(=O)N2CCc3cc(C=CC(=O)NO)ccc32)cc1` [MPT0G009, 3-[1-(4-methoxybenzenesulfonyl)-2,3-dihydro-1H-indol-5-yl]-N-hydroxyacrylamide] has an IC50 [1] of 4.62 ± 0.81 nM, an IC50 [2] of 5.16 ± 0.76 nM and an IC50 [3] of 1.91 ± 0.22 nM. The IC50 [4] was > 10000 nM, the “potency relative to SAHA on HDACs inhibition” value [5] was > 10 times and the anti-proliferative effect [6] was “concentration-dependent anti-proliferative effects”. The “acetylation of histone H3 (Acetyl-H3)” value ([7]; 1 μM MPT0G009 or 30 μM SAHA, 6, 12 or 24 h, starting at 12 h) was “significant hyperacetylation”, the “levels of HDAC3” value ([7]; 12 or 24 h, 1 μM MPT0G009 or 30 μM SAHA) was “decreased levels of HDAC3” and the “Lethality (%)” value ([8]; 250 mg/kg p.o.) was 0%. For the same compound, the “Change of body weight (%) Day 7” value ([8]; 250 mg/kg p.o.) was “+8.7±0.5%”, the “Change of body weight (%) Day 14” value ([8]; 250 mg/kg p.o.) was “+17.0±0.4%” and the “Change of body weight (%) Day 21” value ([8]; 250 mg/kg p.o.) was “+22.6±0.6%”. The “Lethality (%)” value ([8]; 500 mg/kg p.o.) was 0%, the “Change of body weight (%) Day 7” value ([8]; 500 mg/kg p.o.) was “+1.6±0.3%” and the “Change of body weight (%) Day 14” value ([8]; 500 mg/kg p.o.) was “+16.5±0.6%”. For the same compound, the “Change of body weight (%) Day 21” value ([8]; 500 mg/kg p.o.) was “+24.0±0.9%”, the “Lethality (%)” value ([8]; 1000 mg/kg p.o.) was 0% and the “Change of body weight (%) Day 7” value ([8]; 1000 mg/kg p.o.) was “+4.4±0.6%”. For the same compound, the “Change of body weight (%) Day 14” value ([8]; 1000 mg/kg p.o.) was “+12.0±0.7%”, the “Change of body weight (%) Day 21” value ([8]; 1000 mg/kg p.o.) was “+15.3±0.8%” and the “adverse effects / tolerability” value ([8]; up to 1000 mg/kg/day, daily × 7, within 3 weeks) was “No significant adverse effects; also recorded: well tolerated and safe”. For the same compound, the “cartilage degradation (safranin O staining of ankle joints)” value ([9]; 25 mg/kg) was “markedly reduced”, the “formation of osteoclasts (TRAP stain)” value ([9]; 25 mg/kg) was “significantly decreased” and the “leukocyte infiltration, synovitis (hematoxylin and eosin staining)” value ([9]; 25 mg/kg) was “significantly reduced”. The “levels of acetyl-histone H3 (immunohistochemical staining)” value ([9]; 25 mg/kg) was “increased levels”, the “bone destruction (micro-CT)” value ([9]; 25 mg/kg, day 21) was “ameliorated” and the “bone mineral content (BMC)” value ([9]; 25 mg/kg, tarsus, micro-CT) was “prevented the decrease”. For the same compound, the “bone mineral density (BMD)” value ([9]; 25 mg/kg, tarsus, micro-CT) was “prevented the decrease”, the “serum levels of IL-1β” value [9, 11] was “significant decreases” and the “serum levels of IL-6” value [9, 11] was “significant decreases”. The arthritis scores ([9]; day 21, MPT0G009 25 mg/kg, SAHA 200 mg/kg, indomethacin 1 mg/kg, vs vehicle) was “significant reductions”, the paw swelling [9, 12] was “significant reductions” and the paw volume [9, 12] was “significant reductions”. The “expression of p21” value ([10]; RA-FLS 24 h, 1 μM MPT0G009 or 3 μM SAHA, flow cytometry or western blot) was “significantly increased” and the “p21 (flow cytometry)” value ([10]; RA-FLS, 1 μM, 24 h, Figure 1h) was 94.71%.
